These results are taken from patent US8912176B2 (Evotec AG, priority 2009, dated 2014).

The structures appear in SMILES notation.

In general, IC50 refers to the midpoint of a concentration-inhibition curve. A higher IC50 goes with a need for much substance.

This experiment addresses human H3 receptor (Homo sapiens, UniProt Q9Y5N1). Put plainly: cAMP quantification assay for human H3 receptor (DiscoveRx cAMP XS+).

human H3 receptor, sequence (Q9Y5N1 whole entry): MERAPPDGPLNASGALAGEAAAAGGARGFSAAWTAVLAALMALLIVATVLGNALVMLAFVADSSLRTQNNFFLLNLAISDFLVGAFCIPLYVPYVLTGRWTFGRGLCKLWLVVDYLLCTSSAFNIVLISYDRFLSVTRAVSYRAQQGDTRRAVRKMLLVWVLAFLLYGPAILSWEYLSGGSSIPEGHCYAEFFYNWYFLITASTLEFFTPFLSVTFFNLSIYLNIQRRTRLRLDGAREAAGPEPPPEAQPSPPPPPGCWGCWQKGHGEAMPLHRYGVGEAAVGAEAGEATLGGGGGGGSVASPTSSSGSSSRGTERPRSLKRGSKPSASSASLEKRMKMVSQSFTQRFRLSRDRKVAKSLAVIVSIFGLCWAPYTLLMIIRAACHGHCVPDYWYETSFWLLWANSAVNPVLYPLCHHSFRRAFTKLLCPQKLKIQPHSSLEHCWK

In turn, `Cc1ccc(C(=O)N2CC(C(=O)N3CCCN(CC(C)C)CC3)C2)cn1` [Example 84, 1-(2-methylpropyl)-4-({1-[(6-methylpyridin-3-yl)carbonyl]azetidin-3-yl}carbonyl)-1,4-diazepane] showed an IC50 of 100 to 5000 nM.
Then `Cc1ccc(C(=O)N2CC(C(=O)N3CCN(C4CCC4)CC3)C2)cn1` [Example 87, 1-cyclobutyl-4-({1-[(6-methylpyridin-3-yl)carbonyl]azetidin-3-yl}carbonyl)piperazine], with 100 to 5000 nM.
